Columns and labels:
Assay type in all cases: in vivo, human
test subjects [1] = test: cream temperature sense and usability/skin feel with scented cotton versus no aroma; set-up: key to Absorption into skin / Youthfulness of skin / Stickiness of skin: five-point scale, 5 = I agree to 1 = I disagree; conditions: for Skin tightness / Absorption into skin / Cream spreading (heavy) / Cream spreading (light) / Firmness of skin / Non-stickiness of skin / Plumpness of skin / Skin freshness / Skin moistness / Skin smoothness / Skin suppleness / Stickiness of skin / Thickness of cream / Youthfulness of skin / Cream temp. sense (warm) / Cream temp. sense (cold): average; for Skin tightness: five-point scale 5 (I agree) to 1 (I disagree); for Absorption into skin / Cream spreading (heavy) / Cream spreading (light) / Firmness of skin / Non-stickiness of skin / Plumpness of skin / Skin freshness / Skin moistness / Skin smoothness / Skin suppleness / Stickiness of skin / Thickness of cream / Youthfulness of skin: five-point scale 5 to 1; for Cream temp. sense (warm): five-point scale 5 warm to 1 cold; for Cream temp. sense (cold): five-point scale, unscented cream, aroma smelled from cotton; for effect on temperature sense (raising or lowering) / perceived usability/skin feel, heavy-spreading or light-spreading / perceived usability/skin feel, moist or fresh: result in words
Procedure: Just as with the survey conducted for temperature sense above, 17 or 18 women 20 to 24 years of age were selected for this test, cotton to which no perfume had been applied was affixed to one arm, and cotton to which perfume had been applied was affixed to the other arm, the arms were each coated with an unscented cream while the subjected smelled the aroma of the cotton, and the subjectively sensed temperature of the cream was assessed on a five-point scale in which 5 was warm, 4 was somewhat warm, 3 was “can't say,” 2 was somewhat cold, and 1 was cold.
Next, the correlation of aroma-induced cosmetic temperature sense, usability, and how the cosmetic actually felt on the skin, and the correlation with the image of the aroma were tested for the above-mentioned 24 different raw material perfumes. […] The aroma image was assessed on a seven-point scale from 0 to 6, while the usability/skin feel was assessed on a five-point scale from 5 (“I agree”) to 1 (“I disagree”). In addition to assessing usability, the impression of the aroma of the perfume was also assessed at the same time. To prevent the perfume from modifying the cream, a method was employed in which the perfume component was not directly added to the cream, but was instead applied to the cotton and smelled.
The following wording was selected for usability/skin feel. • How well a cream spreads: light to heavy • Absorption into the skin: fast to slow • Makes the skin look youthful?: yes to no • Makes the skin feel sticky?: yes to no • Makes the skin feel fresh?: yes to no • Makes the skin feel moist?: yes to no • Makes the skin feel non-sticky?: yes to no • Makes the skin feel smooth?: yes to no • Makes the skin feel supple?: yes to no • Makes the skin feel tight?: yes to no • Each of these was assessed on a five-point-scale. • For impressions of aroma, words that readily express the characteristics of an aroma, and four different words (natural, rich, tender, and sharp) were selected as generic terms from among sensory adjectives and emotional adjectives used to express the five senses. Each generic term encompasses specific aroma impression words. For example, “natural” encompasses impression expressions such as transparent, bright, natural, [3] pure, etc.; “rich” encompasses thick, sultry, mature, glossy, sexy, etc.; “tender” encompasses mild, sweet, gentle, graceful, etc; and “sharp” encompasses bracing, sharp, cool, etc. […] However, the words used to express usability/skin feel and the words used to express impressions of aroma are nothing more than examples, and [the present invention] is not limited to or by these words.

test subjects [2] = test: subjectively sensed temperature of constant-temperature water on the hands while smelling an aroma; conditions: 28° C. water, seven-point scale 7 hot to 1 extremely cold, 12 test subjects
Procedure: As a result of various research, the inventors discovered that the aroma given off by a specific perfume component can change the temperature subjectively sensed by a person (temperature sense). 12 test subjects put there hands into water held at a constant temperature, and the subjectively sensed temperature of the water was assessed on a seven-point scale in which 7 was hot, 6 was warm, 5 was somewhat warm, 4 was “can't say,” 3 was somewhat cold, 2 was cold, and 1 was extremely cold. The same 12 test subjects were asked to smell a peppermint aroma while once again putting their hands into water held at a constant temperature, and the subjectively sensed temperature of the water was assessed on a seven-point scale. The same experiment was repeated by raising the water temperature one degree at a time, and the testers looked for the temperature at which the assessment given under conditions of smelling the peppermint aroma was the same as the assessment given under conditions of no aroma at 28° C. […]
Also, to examine the change in temperature sense with and without aroma, the 12 test subjects put their hands in water with a temperature of 28° C., and the subjectively sensed temperature was assessed on a seven-point scale in the same manner as above. […]

test subjects [3] = test: temperature sense of a space (clear boxes with and without aroma); conditions: face put into box with aroma versus box without; FIG. 7; result in words
Description: Also, it is possible to change the temperature sense of a person located in a specific space by dispersing in that space, by volatilization or another such means, a perfume composition containing the above-mentioned perfume component capable of changing a person's temperature sense, and having the person smell the aroma. To test this, a clear box containing scented paper and another clear box containing unscented paper were readied, and an experiment was conducting by having a test subject put his or her face into each of the boxes and compare the temperature sense of the space. […] FIG. 5 is a graph of the assessment results, and it can be seen that the temperature sense of a person located in a space can be changed by aroma. When the perfume composition is dispersed in the space so that the person will smell it, the concentration of the aroma is preferably about 0.01 to 10 ppm. With peppermint oil, for instance, about 0.4 ppm is favorable. […] The test subject put his or her face into first one box and then the other and compared the temperature sense of the space. This experiment was conducted for three different aromas, namely, peppermint, bergamot, and vanillin. A lid 6 that could be opened and closed was provided to the top of each of the boxes 1 and 2. The test subjects and experiment conditions were the same as discussed above. […]

test subjects [4] = test: moisture content of the cheeks (corneometer) with scented cotton under nostrils; conditions: room temperature 23 degrees, humidity 46%
Procedure: (§1) 12 female test subjects 20 to 24 years of age were asked to wash their face and attach a piece of scented cotton under their nostrils, which was left alone for a few minutes at a room temperature of 23 degrees and a humidity of 46%, after which the moisture content (corneometer) and sebum content (sebumeter) of the cheeks were measured.

test subjects [5] = test: sebum content of the cheeks (sebumeter) with scented cotton under nostrils; conditions: room temperature 23 degrees, humidity 46%
Procedure: as §1

| Compound | Cream spreading (heavy) (test subjects [1]) | Cream spreading (light) (test subjects [1]) | Thickness of cream (test subjects [1]) | Cream temp. sense (warm) (test subjects [1]) | Cream temp. sense (cold) (test subjects [1]) | effect on temperature sense (raising or lowering) (test subjects [1]) | perceived usability/skin feel, heavy-spreading or light-spreading (test subjects [1]) | perceived usability/skin feel, moist or fresh (test subjects [1]) | further results |
| --- | --- | --- | --- | --- | --- | --- | --- | --- | --- |
| CC1=CC(C)C(C=O)CC1 (centres unmarked) [E, 2,4-dimethyl-3-cyclohexenyl carboxyaldehyde] | 2.7 | 3.3 | 3.1 | 2.5 | 3.5 | capable of lowering temperature sense | light-spreading usability/skin feel | fresh usability/skin feel | Skin tightness (test subjects [1]): 2.4; Absorption into skin (test subjects [1]): 2.9; Firmness of skin (test subjects [1]): 2.8; Non-stickiness of skin (test subjects [1]): 2.6; Plumpness of skin (test subjects [1]): 2.3; Skin freshness (test subjects [1]): 3.1; Skin moistness (test subjects [1]): 3.3; Skin smoothness (test subjects [1]): 3.8; Skin suppleness (test subjects [1]): 3.4; Stickiness of skin (test subjects [1]): 3.2; Youthfulness of skin (test subjects [1]): 3.7 |
| O=Cc1ccc2c(c1)OCO2 [heliotropine] | – | – | – | – | – | capable of raising temperature sense | light-spreading usability/skin feel | moist usability/skin feel | – |
| CC(C=O)Cc1ccc(C(C)(C)C)cc1 (stereo not drawn) [B, 4-tert-butyl-α-methylhydroxycinnamic aldehyde] | 2.2 | 3.8 | 2.5 | 3.4 | 2.6 | capable of raising temperature sense | light-spreading usability/skin feel | moist usability/skin feel | Skin tightness (test subjects [1]): 3.3; Absorption into skin (test subjects [1]): 3.5; Firmness of skin (test subjects [1]): 2.9; Non-stickiness of skin (test subjects [1]): 2.5; Plumpness of skin (test subjects [1]): 2.2; Skin freshness (test subjects [1]): 3.2; Skin moistness (test subjects [1]): 3.9; Skin smoothness (test subjects [1]): 3.8; Skin suppleness (test subjects [1]): 3.4; Stickiness of skin (test subjects [1]): 3.1; Youthfulness of skin (test subjects [1]): 3.8 |
| CC(=O)/C=C/C1=C(C)CCCC1(C)C [β-ionone] | – | – | – | – | – | capable of raising temperature sense | light-spreading usability/skin feel | moist usability/skin feel | – |
| CC1COCc2cc3c(cc21)C(C)(C)C(C)C3(C)C (centres unmarked) [4,6,6,7,8,8-hexamethyl-1,3,4,6,7,8-hexahydrocyclopentabenzopyran] | – | – | – | – | – | capable of raising temperature sense | light-spreading usability/skin feel | moist usability/skin feel | – |
| Cc1ccc2c(c1)OCC(=O)CO2 [7-methyl-3,4-dihydro-(2H)-1,5-benzodioxepin-3-one] | – | – | – | – | – | capable of lowering temperature sense | light-spreading usability/skin feel | fresh usability/skin feel | – |
| CCCCCCCC1CCC(=O)O1 (centres unmarked) [G, γ-undecalactone] | 2.2 | 3.8 | 2.1 | 3.2 | 2.8 | capable of raising temperature sense | – | – | – |
| CC(C)[C@@H]1CC[C@@H](C)C[C@H]1O [L-menthol] | – | – | – | – | – | – | – | – | subjectively sensed temperature of the water, average assessment (test subjects [2]): 4.125 |
| L-carvone | – | – | – | – | – | – | – | – | subjectively sensed temperature of the water, average assessment (test subjects [2]): 4 |
| Cc1occc(=O)c1O [maltol] | – | – | – | – | – | capable of raising temperature sense | – | – | – |
| COC(=O)c1ccccc1N=CCC(C)CCCC(C)(C)O (centres unmarked) [methyl-N-3,7-dimethyl-7-hydroxyoctylidene-anthranilate] | – | – | – | – | – | capable of lowering temperature sense | heavy-spreading usability/skin feel | fresh usability/skin feel | – |
| COc1cc(C=O)ccc1O [C, vanillin] | 3.1 | 2.9 | 2.8 | 4.1 | 1.9 | capable of raising temperature sense | – | – | sense of warmth or cold inside the box (test subjects [3]): gave a warm sensation; Moisture content (test subjects [4]): 69.3 (increase); Sebum content (test subjects [5]): no difference attributable to aroma |
| CC1(C)CCCC2(C)C1CCC1(C)OCCC12 (stereo not drawn) [3α,6,6,9α-tetramethyldodecahydronaphtho[2,1-b]furan] | – | – | – | – | – | capable of raising temperature sense | light-spreading usability/skin feel | moist usability/skin feel | – |
